From patent publication US9227967B2, “Inhibitor compounds of semicarbazide-sensitive amine oxidases” (Proximagen Limited, priority 2010, dated 2016)
Counter-ions that a name gives are not always drawn.

molecular target: T1, human SSAO (Homo sapiens, UniProt Q16853); test: SSAO enzyme inhibition assay (benzylamine substrate; HRP-coupled hydrogen peroxide detection or 14C-benzaldehyde detection); format: biochemical; conditions: purified recombinantly expressed human SSAO, benzylamine as substrate, r.t.; read-out: SSAO inhibitory activity IC50
T1 construct: made in house
T1 sequence (Q16853 29-763 limits assumed): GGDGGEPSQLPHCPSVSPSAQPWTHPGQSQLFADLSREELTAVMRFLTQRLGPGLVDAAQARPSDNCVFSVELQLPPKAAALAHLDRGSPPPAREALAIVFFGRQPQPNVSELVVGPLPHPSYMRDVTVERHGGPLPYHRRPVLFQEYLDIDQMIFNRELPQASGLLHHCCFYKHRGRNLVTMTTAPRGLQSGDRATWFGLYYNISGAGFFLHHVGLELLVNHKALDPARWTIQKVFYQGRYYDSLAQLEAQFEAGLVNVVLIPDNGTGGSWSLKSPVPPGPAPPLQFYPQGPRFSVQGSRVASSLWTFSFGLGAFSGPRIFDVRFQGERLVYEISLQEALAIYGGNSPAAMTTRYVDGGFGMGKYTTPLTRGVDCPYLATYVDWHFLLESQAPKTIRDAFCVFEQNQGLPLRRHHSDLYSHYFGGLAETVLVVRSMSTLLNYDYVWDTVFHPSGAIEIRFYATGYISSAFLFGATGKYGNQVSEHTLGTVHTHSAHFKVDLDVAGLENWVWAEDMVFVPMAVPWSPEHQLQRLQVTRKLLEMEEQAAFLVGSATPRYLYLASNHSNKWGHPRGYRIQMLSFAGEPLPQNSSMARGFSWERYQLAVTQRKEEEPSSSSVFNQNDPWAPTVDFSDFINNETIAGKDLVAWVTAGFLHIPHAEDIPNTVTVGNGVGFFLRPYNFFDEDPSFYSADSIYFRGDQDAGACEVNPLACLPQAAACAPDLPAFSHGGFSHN
Procedure: All primary assays were performed at r.t. with purified recombinantly expressed human SSAO. Enzyme was prepared essentially as described in Öhman et al. (Protein Expression and Purification 46 (2006) 321-331). In addition, secondary- and selectivity assays were performed using SSAO prepared from various tissues or purified rat recombinant SSAO. The enzyme activity was assayed with benzylamine as substrate by measuring either benzaldehyde production, using ^14C-labeled substrate, or by utilizing the production of hydrogen peroxide in a horseradish peroxidise (HRP) coupled reaction. Briefly, test compounds were dissolved in dimethyl sulfoxide (DMSO) to a concentration of 10 mM. Dose-response measurements were assayed by either creating 1:10 serial dilutions in DMSO to produce a 7 point curve or by making 1:3 serial dilutions in DMSO to produce 11 point curves. The top concentrations were adjusted depending on the potency of the compounds and subsequent dilution in reaction buffer yielded a final DMSO concentration ≦2%.
In a horseradish peroxidise (HRP) coupled reaction, hydrogen peroxide oxidation of 10-acetyl-3,7-dihydroxyphenoxazine produced resorufin, which is a highly fluorescent compound (Zhout and Panchuk-Voloshina. Analytical Biochemistry 253 (1997) 169-174; Amplex® Red Hydrogen Peroxide/peroxidise Assay kit, Invitrogen A22188). Enzyme and compounds in 50 mM sodium phosphate, pH 7.4 were set to pre-incubate in flat-bottomed microtiter plates for approximately 15 minutes before initiating the reaction by addition of a mixture of HRP, benzylamine and Amplex reagent. Benzylamine concentration was fixed at a concentration corresponding to the Michaelis constant, determined using standard procedures. Fluorescence intensity was then measured at several time points during 1-2 hours, exciting at 544 nm n and reading the emission at 590 nm. For the human SSAO assay final concentrations of the reagents in the assay wells were: SSAO enzyme 1 μg/ml, benzylamine 100 μM, Amplex reagent 20 μM, HRP 0.1 U/mL and varying concentrations of test compound. The inhibition was measured as % decrease of the signal compared to a control without inhibitor (only diluted DMSO). The background signal from a sample containing no SSAO enzyme was subtracted from all data points. Data was fitted to a four parameter logistic model and IC50 values were calculated using the GraphPad Prism 4 or XLfit 4 programs.
SSAO activity was assayed using 14C-labeled benzylamine and analysed by measuring radioactive benzaldehyde. In a white 96-well optiplate (Packard), 20 μL of diluted test compound was pre-incubated at r.t. with 20 μL SSAO enzyme for approximately 15 minutes with continuous agitation. All dilutions were made with PBS. The reaction was initiated by adding 20 μL of the benzylamine substrate solution containing [7-14C] Benzylamine hydrochloride (CFA589, GE Healthcare). The plate was incubated for 1 hour as above after which the reaction was stopped by acidification (10 μL 1 M HCl). Then 90 μL Micro Scint-E solution (Perkin-Elmer) was added to each well and the plate was continuously mixed for 15 minutes. Phase separation occurred instantly and activity was read in a Topcount scintillation counter (Perkin-Elmer). In the final reaction well, human recombinant SSAO concentration was 10 μg/ml. In order to optimize sensitivity, the substrate concentration was decreased as compared to the HRP coupled assay in order to get a higher fraction of radioactive product. In the human SSAO assay, benzylamine concentration was 40 μM (0.2 μCi/mL). Data was analysed as above.

SMILES	IC50 [nM]
Clc1ccc(-n2nc(N3CCNCC3)c3ccncc32)cc1 [Compound 70, 1-[1-(4-Chlorophenyl)-1H-pyrazolo[3,4-c]pyridin-3-yl]piperazine]	500 to 2500
Cc1ccc(-n2nc(N3CCOCC3C(N)=O)c3ccncc32)cc1 (centres unmarked) [Compound 77, 4-[1-(4-Methylphenyl)-1H-pyrazolo[3,4-c]pyridin-3-yl]morpholine-3-carboxamide]	500 to 2500
Cc1ccc(-n2nc(N3CCOCC3C(=O)N3CCOCC3)c3ccncc32)cc1 (centres unmarked) [Compound 78, 4-[1-(4-Methylphenyl)-1H-pyrazolo[3,4-c]pyridin-3-yl]-3-[(morpholin-4-yl)carbonyl]morpholine]	500 to 2500
Clc1ccc(-n2nc(C3CCNCC3)c3ccncc32)cc1 [Compound 84, 4-[1-(4-Chlorophenyl)-1H-pyrazolo[3,4-c]pyridin-3-yl]piperidine]	100 to 500
Cc1ccc(-n2nc(C3COCCN3)c3ccncc32)cc1 (centres unmarked) [Compound 85, 3-[1-(4-Methylphenyl)-1H-pyrazolo[3,4-c]pyridin-3-yl]morpholine]	500 to 2500
Cc1ccc(-n2nc(C3CNCCO3)c3ccncc32)cc1 (centres unmarked) [Compound 86, 2-[1-(4-Methylphenyl)-1H-pyrazolo[3,4-c]pyridin-3-yl]morpholine]	500 to 2500
Cc1ccc(-n2nc(C3CCC(=O)NC3)c3ccncc32)cc1 (centres unmarked) [Compound 87, 5-[1-(4-Methylphenyl)-1H-pyrazolo[3,4-c]pyridin-3-yl]piperidin-2-one]	100 to 500
Fc1cncc2c1c(C1CCOCC1)nn2-c1ccc(Cl)cc1 [Compound 88, 1-(4-Chlorophenyl)-4-fluoro-3-(oxan-4-yl)-1H-pyrazolo[3,4-c]pyridine]	500 to 2500
Clc1ccc(-n2nc(C3CCN(Cc4cc[nH]n4)CC3)c3ccncc32)cc1 [Compound 89, 4-[1-(4-Chlorophenyl)-1H-pyrazolo[3,4-c]pyridin-3-yl]-1-(1H-pyrazol-3-ylmethyl)piperidine]	100 to 500
CCCCN1CCC(c2nn(-c3ccc(Cl)cc3)c3cnccc23)CC1 [Compound 90, 1-Butyl-4-[1-(4-chlorophenyl)-1H-pyrazolo[3,4-c]pyridin-3-yl]piperidine]	500 to 2500
CN(C)C(=O)N1CCC(c2nn(-c3ccc(Cl)cc3)c3cnccc23)CC1 [Compound 91, 4-[1-(4-Chlorophenyl)-1H-pyrazolo[3,4-c]pyridin-3-yl]-N,N-dimethylpiperidine-1-carboxamide]	100 to 500
CCOC(=O)N1CCC(c2nn(-c3ccc(Cl)cc3)c3cnccc23)CC1 [Compound 92, Ethyl 4-[1-(4-chlorophenyl)-1H-pyrazolo[3,4-c]pyridin-3-yl]piperidine-1-carboxylate]	100 to 500
NCCC(=O)N1CCC(c2nn(-c3ccc(Cl)cc3)c3cnccc23)CC1 [Compound 93, 3-Amino-1-{4-[1-(4-chlorophenyl)-1H-pyrazolo[3,4-c]pyridin-3-yl]piperidin-1-yl}propan-1-one dihydrochloride]	100 to 500
COc1cncc2c1c(C1CCOCC1)nn2-c1ccc(Cl)cc1 [Compound 94, 1-(4-Chlorophenyl)-4-methoxy-3-(oxan-4-yl)-1H-pyrazolo[3,4-c]pyridine]	500 to 2500
Oc1cncc2c1c(C1CCOCC1)nn2-c1ccc(Cl)cc1 [Compound 95, 1-(4-Chlorophenyl)-3-(oxan-4-yl)-1H-pyrazolo[3,4-c]pyridin-4-ol]	100 to 500
COc1cc2c(C3CCOCC3)nn(-c3ccc(Cl)cc3)c2cn1 [Compound 96, 1-(4-Chlorophenyl)-5-methoxy-3-(oxan-4-yl)-H-pyrazolo[3,4-c]pyridine]	500 to 2500
Oc1cc2c(C3CCOCC3)nn(-c3ccc(Cl)cc3)c2cn1 [Compound 97, 1-(4-Chlorophenyl)-3-(oxan-4-yl)-1H,5H,6H-pyrazolo[3,4-c]pyridin-5-one]	100 to 500
Clc1ccc(-n2cc(C3CCOCC3)c3ncncc32)cc1 [Compound 98, 5-(4-Chlorophenyl)-7-(oxan-4-yl)-5H-pyrrolo[3,2-d]pyrimidine]	100 to 500
Clc1ccc(-n2nc(C3CCOCC3)c3ncncc32)cc1 [Compound 99, 1-(4-Chlorophenyl)-3-(oxan-4-yl)-1H-pyrazolo[4,3-d]pyrimidine]	500 to 2500
Fc1ccc(-n2cc(C3CCOCC3)c3ccncc32)cc1 [Compound 100, 1-(4-Fluorophenyl)-3-(oxan-4-yl)-1H-pyrrolo[2,3-c]pyridine]	100 to 500

The next lines start with the values.

IC50 [nM]	SMILES
100 to 500	NC1CCN(c2nn(-c3ccc(Cl)cc3)c3cnccc23)CC1 [Compound 71, 1-[1-(4-Chlorophenyl)-1H-pyrazolo[3,4-c]pyridin-3-yl]piperidin-4-amine]
100 to 500	Cc1ccc(-n2nc(N3CCOC(CN)C3)c3ccncc32)cc1 (centres unmarked) [Compound 72, {4-[1-(4-Methylphenyl)-1H-pyrazolo[3,4-c]pyridin-3-yl]morpholin-2-yl}methanamine]
< 100	Cc1ccc(-n2nc(N3CCC(O)CC3)c3ccncc32)cc1 [Compound 74, 1-[1-(4-Methylphenyl)-1H-pyrazolo[3,4-c]pyridin-3-yl]piperidin-4-ol]
100 to 500	Clc1ccc(-n2nc(N3CCN(Cc4cc[nH]n4)CC3)c3ccncc32)cc1 [Compound 75, 1-[1-(4-Chlorophenyl)-1H-pyrazolo[3,4-c]pyridin-3-yl]-4-(1H-pyrazol-3-ylmethyl)piperazine]
100 to 500	NCCC(=O)N1CCN(c2nn(-c3ccc(Cl)cc3)c3cnccc23)CC1 [Compound 76]
100 to 500	Cc1ccc(-n2nc(N3CCOCC3C(=O)NCCN)c3ccncc32)cc1 (centres unmarked) [Compound 79, N-(2-Aminoethyl)-4-[1-(4-methylphenyl)-1H-pyrazolo[3,4-c]pyridin-3-yl]morpholine-3-carboxamide dihydrochloride]
100 to 500	Clc1ccc(-n2nc(C3CCOCC3)c3ccncc32)cc1 [Compound 80, 1-(4-Chlorophenyl)-3-(oxan-4-yl)-1H-pyrazolo[3,4-c]pyridine]
100 to 500	Cc1ccc(-n2nc(C3CCOC3)c3ccncc32)cc1 (centres unmarked) [Compound 81, 1-(4-Methylphenyl)-3-(oxolan-3-yl)-1H-pyrazolo[3,4-c]pyridine]
100 to 500	Cc1ccc(-n2nc(C3CCOCC3)c3ccncc32)cc1 [Compound 82, 1-(4-Methylphenyl)-3-(oxan-4-yl)-1H-pyrazolo[3,4-c]pyridine]
100 to 500	Fc1ccc(-n2nc(C3CCOCC3)c3ccncc32)cc1 [Compound 83, 1-(4-Fluorophenyl)-3-(oxan-4-yl)-1H-pyrazolo[3,4-c]pyridine]
< 100	Clc1ccc(-n2cc(C3CCOCC3)c3ccncc32)cc1 [Compound 101, 1-(4-Chlorophenyl)-3-(oxan-4-yl)-1H-pyrrolo[2,3-c]pyridine]
< 100	Cc1ccc(-n2cc(C3CCOCC3)c3ccncc32)cc1 [Compound 102, 1-(4-Methylphenyl)-3-(oxan-4-yl)-1H-pyrrolo[2,3-c]pyridine]
